Experimental data as given in PubChem BioAssay (NCI).
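Cultured in 96-well plates, cells were exposed to test compound for 48 hours across five concentrations. The concentration for 50% growth inhibition is given as GI50. The concentration for full growth arrest is given as TGI.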

How the values were obtained:
Assay in all cases: NCI-60 cell line screen, 48 h
[1] = system: ACHN renal
[2] = system: CAKI-1 renal
[3] = system: COLO 205 colon
[4] = system: DU-145 prostate
[5] = system: HOP-92 NSCLC
[6] = system: KM12 colon
[7] = system: MDA-MB-231 breast
[8] = system: NCI-H460 lung
[9] = system: OVCAR-3 ovarian
[10] = system: OVCAR-5 ovarian
[11] = system: OVCAR-8 ovarian
[12] = system: PC-3 prostate
[13] = system: SF-268 CNS
[14] = system: SF-295 CNS
[15] = system: SF-539 CNS
[16] = system: SK-MEL-28 melanoma
[17] = system: SK-OV-3 ovarian
[18] = system: SN12C renal
[19] = system: SNB-75 CNS
[20] = system: UACC-62 melanoma
[21] = system: 786-0 renal
[22] = system: A498 renal
[23] = system: A549 NSCLC
[24] = system: BT-549 breast
[25] = system: CCRF-CEM leukemia
[26] = system: HCC-2998 colon
[27] = system: HCT-116 colon
[28] = system: HCT-15 colon
[29] = system: HL-60(TB) leukemia
[30] = system: HS 578T breast
[31] = system: HT29 colon
[32] = system: IGROV1 ovarian
[33] = system: LOX IMVI melanoma
[34] = system: M14 melanoma
[35] = system: MALME-3M melanoma
[36] = system: MCF7 breast
[37] = system: MDA-MB-435
[38] = system: MOLT-4 leukemia
[39] = system: NCI-H226 lung
[40] = system: NCI-H23 lung
[41] = system: NCI-H522 lung
[42] = system: OVCAR-4 ovarian
[43] = system: RPMI-8226 leukemia
[44] = system: SK-MEL-5 melanoma
[45] = system: SNB-19 CNS
[46] = system: SR leukemia
[47] = system: SW-620 colon
[48] = system: T-47D breast
[49] = system: TK-10 renal
[50] = system: U251 CNS
[51] = system: UACC-257 melanoma
[52] = system: UO-31 renal

Compound: OC(c1cc(-c2ccc(Cl)cc2)nc2c(Cl)cccc12)C1CCCCN1 (stereo not drawn)
- GI50 [1]: 1530 nM
- TGI [1]: 2880 nM
- GI50 [2]: 1160 nM
- TGI [2]: 2520 nM
- GI50 [3]: 1700 nM
- TGI [3]: 3170 nM
- GI50 [4]: 1710 nM
- TGI [4]: 3100 nM
- GI50 [5]: 1020 nM
- TGI [5]: 2360 nM
- GI50 [6]: 1850 nM
- TGI [6]: 3360 nM
- GI50 [7]: 1490 nM
- TGI [7]: 3020 nM
- GI50 [8]: 1640 nM
- TGI [8]: 3150 nM
- GI50 [9]: 1810 nM
- TGI [9]: 3350 nM
- GI50 [10]: 1660 nM
- TGI [10]: 3260 nM
- GI50 [11]: 2110 nM
- TGI [11]: 4630 nM
- GI50 [12]: 1460 nM
- TGI [12]: 2910 nM
- GI50 [13]: 1780 nM
- TGI [13]: 3400 nM
- GI50 [14]: 1680 nM
- TGI [14]: 3280 nM
- GI50 [15]: 1700 nM
- TGI [15]: 3150 nM
- GI50 [16]: 1760 nM
- TGI [16]: 3230 nM
- GI50 [17]: 1760 nM
- TGI [17]: 3210 nM
- GI50 [18]: 1600 nM
- TGI [18]: 3270 nM
- GI50 [19]: 1280 nM
- TGI [19]: 2680 nM
- GI50 [20]: 1690 nM
- TGI [20]: 3170 nM

Compound: O=C(Nc1cccc(-n2cc(-c3ccncc3)c(-c3ccc(O)c(Cl)c3)n2)c1)Nc1ccc(Cl)c(Cl)c1
- GI50 [21]: 1580 nM
- TGI [21]: 7120 nM
- GI50 [22]: 1950 nM
- TGI [22]: 7010 nM
- GI50 [23]: 1540 nM
- TGI [23]: 7270 nM
- GI50 [1]: 2020 nM
- TGI [1]: 7810 nM
- GI50 [24]: 1800 nM
- TGI [24]: 4320 nM
- GI50 [25]: 1390 nM
- TGI [25]: 5730 nM
- GI50 [3]: 2500 nM
- TGI [3]: 6230 nM
- GI50 [4]: 2390 nM
- TGI [4]: 12100 nM
- GI50 [26]: 3650 nM
- TGI [26]: > 100000 nM
- GI50 [27]: 1830 nM
- TGI [27]: 5330 nM
- GI50 [28]: 1630 nM
- TGI [28]: 8520 nM
- GI50 [29]: 2710 nM
- TGI [29]: 7020 nM
- GI50 [5]: 763 nM
- TGI [5]: 3380 nM
- GI50 [30]: 1400 nM
- TGI [30]: 7100 nM
- GI50 [31]: 3420 nM
- TGI [31]: 39000 nM
- GI50 [32]: 2350 nM
- TGI [32]: 6780 nM
- GI50 [6]: 1400 nM
- TGI [6]: 3110 nM
- GI50 [33]: 1380 nM
- TGI [33]: 5060 nM
- GI50 [34]: 1590 nM
- TGI [34]: 3790 nM
- GI50 [35]: 2110 nM
- TGI [35]: 6860 nM
- GI50 [36]: 1880 nM
- TGI [36]: 5230 nM
- GI50 [7]: 1850 nM
- TGI [7]: > 100000 nM
- GI50 [37]: 1960 nM
- TGI [37]: 5920 nM
- GI50 [38]: 1430 nM
- TGI [38]: 4520 nM
- GI50 [39]: 3010 nM
- TGI [39]: 9530 nM
- GI50 [40]: 1880 nM
- TGI [40]: 6620 nM
- GI50 [8]: 2220 nM
- TGI [8]: 12400 nM
- GI50 [41]: 1300 nM
- TGI [41]: 3760 nM
- GI50 [42]: 2400 nM
- TGI [42]: 9500 nM
- GI50 [10]: 3260 nM
- TGI [10]: 55900 nM
- GI50 [11]: 1650 nM
- TGI [11]: 5610 nM
- GI50 [12]: 2070 nM
- TGI [12]: 7450 nM
- GI50 [43]: 1490 nM
- TGI [43]: 4540 nM
- GI50 [13]: 2650 nM
- TGI [13]: 16600 nM
- GI50 [14]: 2290 nM
- TGI [14]: 7270 nM
- GI50 [15]: 1570 nM
- TGI [15]: 4870 nM
- GI50 [16]: 1800 nM
- TGI [16]: 6580 nM
- GI50 [44]: 1560 nM
- TGI [44]: 2990 nM
- GI50 [17]: 3430 nM
- TGI [17]: > 100000 nM
- GI50 [18]: 2720 nM
- TGI [18]: > 100000 nM
- GI50 [45]: 3060 nM
- TGI [45]: > 100000 nM
- GI50 [46]: 430 nM
- TGI [46]: 2750 nM
- GI50 [47]: 2630 nM
- TGI [47]: 7320 nM
- GI50 [48]: 1840 nM
- TGI [48]: 6410 nM
- GI50 [49]: 2830 nM
- TGI [49]: 7560 nM
- GI50 [50]: 1250 nM
- TGI [50]: 5610 nM
- GI50 [51]: 2020 nM
- TGI [51]: 5130 nM
- GI50 [20]: 1990 nM
- TGI [20]: 4940 nM
- GI50 [52]: 2670 nM
- TGI [52]: 8340 nM
